These results are taken from patent US6159934A, “Use of GHRH-RP to stimulate stem cell factor production” (Indiana University Foundation, priority 1996, dated 2000).

In assay [1] the test system is transferrin gene expression in Sertoli cells. The experiment in a line: Northern blot analysis of transferrin gene expression in cultured Sertoli cells. The assay is classed as cell-based. The settings on record: GHRH-RP 10 nM and 100 nM, GHRH 10 nM, 16 hours, rat Sertoli cells. The procedure:
(§1) As indicated above, it has been discovered that GHRH-RP has a unique testicular action. GHRH-RP specifically activated SVF in Sertoli cells as described in Example 3 below. […] Northern gel analysis of 10 μg of total Sertoli cell RNA was performed and the blot probed for SCF, transferrin, androgen binding protein (ABP), α-inhibin and γ-actin as control. B. Bloch, A. Baird, N. Ling, R. Guillemin, Endocrinology 118, 156 (1986). Stimulation of SCF expression is 12 fold over control at 10 nM and 16 fold at 100 nM concentrations of GHRH-RP. GHRH (10 nM) stimulated stem cell factor gene expression 3 fold over control. […] Other Sertoli cell specific transcripts including transferrin, ABP and α-inhibin were note regulated by GHRH-RP (FIG. 6). Although a functional GHRH receptor has been identified in Sertoli cells (R. S. Johnson, B. M. Spiegelman, V. Papaioannou, Cell 71, 577 (1992); K. M. Zsebo et al., Cell 63, 213 (1990); E. Huang et al., Cell 63, 225), the GHRH-RP stimulation of stem cell factor expression may not be mediated through this receptor. […] Adenylate cyclase stimulation is measured as fold stimulation of control. […]
(§2) Sprague-Dawley rats (20-22 day old) were obtained from Harlan Labs (Indianapolis, IN). […] Cell purity was monitored by phase contrast microscopy and by comparative reverse transcription-polymerase chain reaction (RT-PCR) amplification. […]

Assay [2] concerns α-inhibin gene expression in Sertoli cells. The experiment in a line: Northern blot analysis of α-inhibin gene expression in cultured Sertoli cells. The assay is classed as cell-based. The conditions noted are these: GHRH-RP 10 nM and 100 nM, GHRH 10 nM, 16 hours, rat Sertoli cells. The procedure:
as §1, §2

Assay [3] deals with androgen binding protein (ABP) gene expression in Sertoli cells. The experiment in a line: Northern blot analysis of androgen binding protein (ABP) gene expression in cultured Sertoli cells. The assay is classed as cell-based. The settings on record: GHRH-RP 10 nM and 100 nM, GHRH 10 nM, 16 hours, rat Sertoli cells. The procedure: as §1, §2
The subject of assay [4] is stem cell factor (SCF) gene expression in Sertoli cells. The experiment in a line: Northern blot analysis of SCF gene expression in cultured Sertoli cells. The conditions noted are these: 16 hours, rat Sertoli cells, actin as control. The assay is classed as cell-based. The method, then:
As indicated above, it has been discovered that GHRH-RP has a unique testicular action. GHRH-RP specifically activated SVF in Sertoli cells as described in Example 3 below. […] Northern gel analysis of 10 μg of total Sertoli cell RNA was performed and the blot probed for SCF, transferrin, androgen binding protein (ABP), α-inhibin and γ-actin as control. B. Bloch, A. Baird, N. Ling, R. Guillemin, Endocrinology 118, 156 (1986). Stimulation of SCF expression is 12 fold over control at 10 nM and 16 fold at 100 nM concentrations of GHRH-RP. GHRH (10 nM) stimulated stem cell factor gene expression 3 fold over control. […] Other Sertoli cell specific transcripts including transferrin, ABP and α-inhibin were note regulated by GHRH-RP (FIG. 6). Although a functional GHRH receptor has been identified in Sertoli cells (R. S. Johnson, B. M. Spiegelman, V. Papaioannou, Cell 71, 577 (1992); K. M. Zsebo et al., Cell 63, 213 (1990); E. Huang et al., Cell 63, 225), the GHRH-RP stimulation of stem cell factor expression may not be mediated through this receptor. […] Briefly, shown in FIG. 6 are the results of experiments in which rat Sertoli cells, isolated and cultured for 4 days were incubated with GHRH-RP (100 nM), GHRH (100 nM), FSH (0.0275 U/ml) or control media for 30 minutes at 37° C. The cells were then assayed for cAMP production by 125 I cAMP Radioimmunoassay. C. H. Srivastava, J. D. Fleck, A. M. Meyers, S. A. Berry, O. H. Pescovitz, "Distribution of Growth Hormone Releasing Hormone-Like (HRH-LI) mRNA and Immunoreactivity in Rat Tissues" (Abstract), The Endocrine Society, 73rd Annual Endocrine Society, Washington, D.C. (1991). Adenylate cyclase stimulation is measured as fold stimulation of control. Each bar is representative of five separate experiments.
as §2

Assay [5] has as its system adenylate cyclase in cultured Sertoli cells. The experiment in a line: cAMP production (125I cAMP radioimmunoassay) in cultured Sertoli cells. The conditions noted are these: 100 nM, 30 minutes at 37° C., rat Sertoli cells day 4 of culture. The assay is classed as cell-based. The method, then: As indicated above, it has been discovered that GHRH-RP has a unique testicular action. GHRH-RP specifically activated SVF in Sertoli cells as described in Example 3 below. […] Northern gel analysis of 10 μg of total Sertoli cell RNA was performed and the blot probed for SCF, transferrin, androgen binding protein (ABP), α-inhibin and γ-actin as control. B. Bloch, A. Baird, N. Ling, R. Guillemin, Endocrinology 118, 156 (1986). Stimulation of SCF expression is 12 fold over control at 10 nM and 16 fold at 100 nM concentrations of GHRH-RP. GHRH (10 nM) stimulated stem cell factor gene expression 3 fold over control. […] Other Sertoli cell specific transcripts including transferrin, ABP and α-inhibin were note regulated by GHRH-RP (FIG. 6). Although a functional GHRH receptor has been identified in Sertoli cells (R. S. Johnson, B. M. Spiegelman, V. Papaioannou, Cell 71, 577 (1992); K. M. Zsebo et al., Cell 63, 213 (1990); E. Huang et al., Cell 63, 225), the GHRH-RP stimulation of stem cell factor expression may not be mediated through this receptor. […] Briefly, shown in FIG. 6 are the results of experiments in which rat Sertoli cells, isolated and cultured for 4 days were incubated with GHRH-RP (100 nM), GHRH (100 nM), FSH (0.0275 U/ml) or control media for 30 minutes at 37° C. […] Adenylate cyclase stimulation is measured as fold stimulation of control. […]
On the technique in general: cAMP levels reflect the balance of adenylyl cyclase and phosphodiesterase activity.

For assay [6], the system named is Sertoli cell c-fos gene expression. The settings on record: treatment of cultured Sertoli cells; Srivastava et al., Endocrinology 133, 1478 (1993); cited from earlier work.
Assay [7] deals with stem cell factor (SCF) gene expression in Sertoli cells. The settings on record: treatment of cultured Sertoli cells; Srivastava et al., Endocrinology 133, 1478 (1993); cited from earlier work.

“GHRH-RP: 30 amino acid C-terminal peptide of the GHRH precursor; rat peptide synthesized from the deduced amino acid sequence (amino acids 74-104) (HLDRVWAEDKQMALESILQGFPRMKLSAEA)”: the “stimulation of transferrin gene expression over control” value in assay [1] is “no stimulation”. In addition, the “stimulation of α-inhibin gene expression over control” value in assay [2] was “no stimulation”. The “stimulation of ABP gene expression over control” value in assay [3] is reported as “no stimulation”. Further, the “Stimulation of SCF expression” value in assay [4] (10 nM) is recorded as 12 fold over control; in assay [4] (100 nM), 16 fold. The “Adenylate cyclase stimulation (cAMP production)” value in assay [5] is “does not stimulate increases”.

As to “GHRH: mature 43 amino acid rat GHRH peptide, hypothalamic factor that stimulates release of pituitary growth hormone (HADAIFTSSYRRILGQLYARKLLHEIMNRQQGERNQEQRSRFN)”, the “Sertoli cell c-fos gene expression” value in assay [6] is “activates”. In assay [1], the “stimulation of transferrin gene expression over control” value is “no stimulation”. Besides, the “stimulation of α-inhibin gene expression over control” value in assay [2] was “no stimulation”. Moreover, the “Sertoli cell stem cell factor gene expression” value in assay [7] is “activates”. In addition, the “stimulation of ABP gene expression over control” value in assay [3] is on record as “no stimulation”. Also, the “Stimulation of SCF expression” value in assay [4] (10 nM) stood at 3 fold over control.
